Source: patent US20230015478A1, “GLP-1 RECEPTOR AGONISTS HAVING IMPROVED PHARMACOLOGICAL AND DRUG DELIVERY PROPERTIES” (priority 2021, published 2023)
Like-named read-outs stand apart in the source and are kept apart here. Square brackets hold non-standard residues; d marks the D form. Peptide text beside a SMILES is read from it. Bip = N[C@@H](Cc1ccc(-c2ccccc2)cc1)C(=O)O; αMePhe(2-F) = C[C@](N)(Cc1ccccc1F)C(=O)O; hPhe = N[C@@H](CCc1ccccc1)C(=O)O; αMeF = C[C@](N)(Cc1ccccc1)C(=O)O; αMeP = C[C@@]1(C(=O)O)CCCN1; Aib = CC(C)(N)C(=O)O

Biological target: T1, hGLP1 receptor (Homo sapiens, UniProt P43220)
T1 construct: expressed in transfected cells; host or cells: HEK (human embryonic kidney) cells co-expressing hGLP1 receptor and CRE-Luciferase
T1 sequence (P43220 24-463): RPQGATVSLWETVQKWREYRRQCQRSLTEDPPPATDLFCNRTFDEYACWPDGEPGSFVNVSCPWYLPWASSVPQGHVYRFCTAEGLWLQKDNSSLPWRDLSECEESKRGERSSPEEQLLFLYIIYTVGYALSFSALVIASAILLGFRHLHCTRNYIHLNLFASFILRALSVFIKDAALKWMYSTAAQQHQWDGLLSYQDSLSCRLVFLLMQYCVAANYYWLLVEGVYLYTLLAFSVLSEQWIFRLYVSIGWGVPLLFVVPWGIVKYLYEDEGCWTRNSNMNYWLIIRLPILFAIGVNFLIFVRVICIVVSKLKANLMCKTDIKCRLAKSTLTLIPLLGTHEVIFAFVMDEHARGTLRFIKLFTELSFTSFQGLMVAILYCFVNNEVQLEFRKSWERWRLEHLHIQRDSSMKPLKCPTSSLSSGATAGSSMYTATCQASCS
Experiment: cAMP HTRF agonist assay in HEK cells co-expressing hGLP1 receptor and CRE-Luciferase
Format: cell-based
Conditions: for potency compared with the parent peptide analog (1-2): replacement of Aib2, in words
Summary of the method: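 HEK cells co-expressing hGLP1R and CRE-luciferase, 1000 cells/well in DPBS with 500 μM IBMX, exposed to peptides or exendin-4 reference for 30 min; 11-point 1:3 series from top 1.0 μM. cAMP measured by HTRF (665/615 nm) after 1 h at room temperature; EC50 from 4-parameter logistic fit.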

[1] = cAMP EC50, nM (0.1% albumin), Table 4, 0.1% albumin

Compound | EC50 [1] | potency compared with the parent peptide analog (1-2) | EC50 (Table 5, 0% albumin, read-out: cAMP EC50, nM (0% albumin)) | fold lower potency than the parent peptide (1-4) (relative to parent 1-4)
C[C@@H](O)[C@H](NC(=O)CNC(=O)[C@H](CCC(=O)O)NC(=O)[C@@H]1CCCN1C(=O)[C@@H](N)Cc1c[nH]cn1)C(=O)N[C@@](C)(Cc1ccccc1F)C(=O)N[C@H](C(=O)N[C@@H](CO)C(=O)N[C@@H](CC(=O)O)C(=O)N[C@@H](Cc1ccc(-c2ccccc2)cc1)C(=O)N[C@@H](Cc1ccc(-c2ccccc2)cc1)C(N)=O)[C@@H](C)O [3-38, H2N-His-Pro-Glu-Gly-Thr-α-MePhe(2-F)-Thr-Ser-Asp-Bip-Bip-C(O)NH2] (H-HPEGT[αMePhe(2-F)]TSD[Bip][Bip]-NH2) | 0.04 nM |  |  | 
CC(C)[C@H](NC(=O)[C@@H](N)Cc1c[nH]cn1)C(=O)N[C@@H](CCC(=O)O)C(=O)NCC(=O)N[C@H](C(=O)N[C@@](C)(Cc1ccccc1F)C(=O)N[C@H](C(=O)N[C@@H](CO)C(=O)N[C@@H](CC(=O)O)C(=O)N[C@@H](Cc1ccc(-c2ccccc2)cc1)C(=O)N[C@@H](Cc1ccc(-c2ccccc2)cc1)C(N)=O)[C@@H](C)O)[C@@H](C)O [3-39, H2N-His-Val-Glu-Gly-Thr-α-MePhe(2-F)-Thr-Ser-Asp-Bip-Bip-C(O)NH2] (H-HVEGT[αMePhe(2-F)]TSD[Bip][Bip]-NH2) | 0.37 nM | slightly less potency |  | 
C[C@@H](O)[C@H](NC(=O)CNC(=O)[C@H](CCC(=O)O)NC(=O)[C@]1(C)CCCN1C(=O)[C@@H](N)Cc1c[nH]cn1)C(=O)N[C@@](C)(Cc1ccccc1F)C(=O)N[C@H](C(=O)N[C@@H](CO)C(=O)N[C@@H](CC(=O)O)C(=O)N[C@@H](Cc1ccc(-c2ccccc2)cc1)C(=O)N[C@@H](Cc1ccc(-c2ccccc2)cc1)C(N)=O)[C@@H](C)O [3-40, H2N-His-α-MePro-Glu-Gly-Thr-α-MePhe(2-F)-Thr-Ser-Asp-Bip-Bip-C(O)NH2] (H-H[αMeP]EGT[αMePhe(2-F)]TSD[Bip][Bip]-NH2) | 0.003 nM | significantly greater potency |  | 
C[C@@H](O)[C@H](NC(=O)CNC(=O)[C@H](CCC(=O)O)NC(=O)C1(C)CCCN1C(=O)[C@@H](N)Cc1c[nH]cn1)C(=O)NC(C)(Cc1ccccc1F)C(=O)N[C@H](C(=O)N[C@@H](CO)C(=O)N[C@@H](CC(=O)O)C(=O)NC(C)(C)C(=O)N[C@@H](Cc1ccc(-c2ccccc2)cc1)C(N)=O)[C@@H](C)O (stereo partly drawn) [3-60, H2N-His-α-MePro-Glu-Gly-Thr-α-MePhe(2-F)-Thr-Ser-Asp-Aib-Bip-C(O)NH2] | > 1000 nM |  |  | 
C[C@@H](O)[C@H](NC(=O)CNC(=O)[C@H](CCC(=O)O)NC(=O)[C@]1(C)CCCN1C(=O)[C@@H](N)Cc1c[nH]cn1)C(=O)N[C@@](C)(Cc1ccccc1)C(=O)N[C@H](C(=O)N[C@@H](CO)C(=O)N[C@@H](CC(=O)O)C(=O)N[C@@H](Cc1ccc(-c2ccccc2)cc1)C(=O)NC(C)(C)C(N)=O)[C@@H](C)O [3-61, H2N-His-α-MePro-Glu-Gly-Thr-α-MePhe-Thr-Ser-Asp-Bip-Aib-C(O)NH2] (H-H[αMeP]EGT[αMeF]TSD[Bip][Aib]-NH2) | 8.3 nM |  |  | 
C[C@@H](O)[C@H](NC(=O)CNC(=O)[C@H](CCC(=O)O)NC(=O)C(C)(C)NC(=O)[C@@H](N)Cc1c[nH]cn1)C(=O)N[C@@](C)(Cc1ccccc1F)C(=O)N[C@@H](CC(N)=O)C(=O)N[C@@H](CO)C(=O)N[C@@H](CC(=O)O)C(=O)N[C@@H](Cc1ccc(-c2ccccc2)cc1)C(=O)N[C@@H](Cc1ccc(-c2ccccc2)cc1)C(N)=O [3-62, H2N-His-Aib-Glu-Gly-Thr-α-MePhe(2-F)-Asn-Ser-Asp-Bip-Bip-C(O)NH2] (H-H[Aib]EGT[αMePhe(2-F)]NSD[Bip][Bip]-NH2) | 3.1 nM |  |  | 
C[C@@H](O)[C@H](NC(=O)CNC(=O)[C@H](CCC(=O)O)NC(=O)C(C)(C)NC(=O)[C@@H](N)Cc1c[nH]cn1)C(=O)N[C@@](C)(Cc1ccccc1F)C(=O)N[C@H](C(=O)N[C@@H](CO)C(=O)N[C@@H](CC(=O)O)C(=O)N[C@@H](Cc1ccc(-c2ccccc2)cc1)C(=O)N[C@@H](CCc1ccccc1)C(=O)O)[C@@H](C)O [4-1, H2N-His-Aib-Glu-Gly-Thr-α-MePhe(2-F)-Thr-Ser-Asp-Bip-Hph-C(O)OH] (H-H[Aib]EGT[αMePhe(2-F)]TSD[Bip][hPhe]-OH) |  |  | 272 nM | about 30 fold
